Results from patent publication US20120142730A1 (priority 2010, published 2012).
Read-outs that look alike come from different tables or passages of the source.

Experiments:
[1] = system: relapsing MS; conditions: cited from earlier work; for Development of active MRI lesions in relapsing MS: Polman, 2005
[2] = system: subjects with relapsing remitting multiple sclerosis (RRMS); test: ALLEGRO phase III trial: disability endpoints (EDSS, MSFC); type: in vivo, human; conditions: for Patients with confirmed (3 months) EDSS progression: after 24 months
Experimental: Eligible subjects were equally randomized 1:1 into one of the following treatment arms: • 1. […] 21, 2007 (see, page 10, line 5 to page 11, line 3). • 2. Matching placebo for laquinimod arm: one capsule is administered once daily. Secondary endpoints were disability progression as measured by the EDSS and the Multiple Sclerosis Functional Composite (MSFC). Confirmed disability progression was defined as an increase of ≧1.0 EDSS point from baseline if baseline EDSS was between 0 and 5.0, or an increase of ≧0.5 point if baseline EDSS was ≧5.5. In order to confirm EDSS progression, these increases had to be sustained for at least three months. Additional predefined disability endpoints include the proportion of patients without confirmed disability progression at 24 months; confirmed disability progression (defined as change in EDSS scores≧1.0 points for baseline EDSS 0 to 5.0 or ≧5.5) sustained for six months; the accumulation of physical disability as measured by mean EDSS and the mean change in EDSS from baseline to last observed value (LOV). For the MSFC, the measure was the total MSFC z score at 24 months (including patients who terminated after 12 months). The 9-hole peg test (9HPT) and the Paced Auditory Serial Addition Test (PASAT) were performed three times at screening to reduce confounding training effects during the trial. The analysis of the accumulation of physical disability is based on Cox's Proportional Hazard model. The analysis of MSFC is based on baseline-adjusted Analysis of Covariance. The analysis of the secondary MRI endpoints is based on baseline-adjusted Negative Binomial Regression. To control against type-I error, the secondary endpoints were analyzed only after a significant effect was found for the primary endpoint. Likewise, the study's overall type-I error was further controlled in the analysis of the secondary endpoints by applying the following gate-keeping approach: both the cumulative number of new/enlarging T2 and the cumulative number of GdE lesions at months 12 and 24 were tested simultaneously and needed to be statistically significant at p<0.05, or one needed to be significant at p<0.025 if the other endpoint was not statistically significant at the 5% level. If the above condition was met, the study then proceeded to the analysis of the confirmed EDSS progression endpoint, if this endpoint was significant at 5% level, the analysis was done for the total MSFC z-scores. The analysis of risk to confirmed disability progression using the ITT cohort was based on Cox's Proportional Hazard model adjusted to baseline EDSS, log of the prior 2 year number of relapses +1 and geographical region. The MSFC at month 24 was analyzed using a baseline-adjusted ANCOVA (SAS@PROC GLM) with baseline MSFC as 1 degree of freedom covariate and baseline EDSS score, log of the 2-year prior relapse rate +1 and country or geographical region as additional covariates.

[3] = 0.6 mg daily oral, listed as laquinimod

In the case of `CCN(C(=O)c1c(O)c2c(Cl)cccc2n(C)c1=O)c1ccccc1` [Laquinimod, laquinimod], the “MRI and clinical effect as compared to placebo” value ([1]; 0.3 mg/day oral dose, Comi, 2007) is listed as “neither MRI nor clinical effect”, the “Development of active MRI lesions in relapsing MS” value ([1]; 0.3 mg/day oral dose) is listed as “reduce development of active MRI lesions” and the “Development of active MRI lesions in relapsing MS” value [1] is listed as “reduce development of active MRI lesions”. The “Median EDSS score at LOV” value ([2]; 0.6 mg daily oral) was 2.5, the “Decrease in the risk for 6 month confirmed EDSS progression” value ([2]; 0.6 mg daily oral vs placebo) was 48% and the “Reduction in risk of confirmed progression requiring persistence of EDSS change at the last available visit” value ([2]; 0.6 mg daily oral vs placebo) was 35%. For the same compound, the “Time to confirmed (3 Ms) progression EDSS: reduction of risk to progress” value ([2]; 0.6 mg daily oral vs placebo) was 36% reduction of risk, the “Adjusted mean total MSFC z score at 24 months, difference from placebo” value ([2]; 0.6 mg daily oral vs placebo, p=0.5893) was “no significant differences” and the “Time to confirmed (3 Ms) progression EDSS: reduction of risk to progress” value ([2]; 0.6 mg daily oral vs placebo, listed as laquinimod) was 36%. The “Patients with confirmed (3 months) EDSS progression” value ([2]; 0.6 mg daily oral) was 9.8% progressed, the “Patients with confirmed (3 months) EDSS progression” value [2, 3] was 9.8% and the “Mean EDSS score at LOV” value ([2]; 0.6 mg daily oral, baseline adjusted ANCOVA) was 2.68. For the same compound, the “Patients with no confirmed disability progression at LOV” value ([2]; 0.6 mg daily oral, n = 550) was “(90.2%)”, the “Patients with no confirmed disability progression at LOV, number” value ([2]; 0.6 mg daily oral, n = 550) was 496 and the “MSFC total z score at 24 months (including early terminations after 12 months), mean” value [2, 3] was 0.056. The “Patients who progressed and also had a relapse during the study” value ([2]; post-hoc subgroup analysis, 33/54 patients) was 61.1%.
